Paper PMC2933030 (Biochemical Journal, 2010)

Key:
[1] = system: β5 site of the proteasome; conditions: cited from earlier work
[2] = system: 4xUb-Luc reporter in MDA-MB-231 cells; test: 4xUb-Luc reporter accumulation assay; format: cell-based; conditions: for MDA231 4xUb-Luc Maximal induction: 8 h with compound, over DMSO control
[3] = system: bulk protein turnover in HCT116 cells; test: Bulk protein turnover assay; format: cell-based
MDA-MB-231 cells = test: ATPlite cell viability assay, MDA-MB-231; format: cell-based; conditions: Homo sapiens, MDA-MB-231, 72 h, read-out: Cell viability MDA-MB-231 LC50
[4] = target: Tissue plasminogen activator (Homo sapiens, UniProt P00750); test: Protease selectivity assay, tissue plasminogen activator; format: biochemical
Chain of Tissue plasminogen activator (P00750 36-562): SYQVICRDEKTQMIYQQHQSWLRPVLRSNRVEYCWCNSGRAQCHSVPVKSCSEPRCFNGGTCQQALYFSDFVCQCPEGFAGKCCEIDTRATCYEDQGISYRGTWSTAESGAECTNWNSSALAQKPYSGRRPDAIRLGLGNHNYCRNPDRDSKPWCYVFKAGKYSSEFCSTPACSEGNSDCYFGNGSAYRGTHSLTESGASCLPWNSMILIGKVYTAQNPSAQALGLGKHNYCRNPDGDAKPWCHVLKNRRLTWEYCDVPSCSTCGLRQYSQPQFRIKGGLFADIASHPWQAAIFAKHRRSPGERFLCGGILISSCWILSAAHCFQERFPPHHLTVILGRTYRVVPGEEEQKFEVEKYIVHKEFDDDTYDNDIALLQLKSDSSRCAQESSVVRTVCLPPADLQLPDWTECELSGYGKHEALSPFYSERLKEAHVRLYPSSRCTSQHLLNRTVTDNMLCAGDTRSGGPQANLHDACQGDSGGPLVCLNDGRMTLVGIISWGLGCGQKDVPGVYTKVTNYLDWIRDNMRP

[5] = target: human peripheral blood monocyte 20S β1i site, immunoproteasome (Homo sapiens, UniProt P28065+P40306); test: Purified human 20S-PA28 peptidase assay, β1i site; format: biochemical
[6] = target: human erythrocyte 20S β5 site (Homo sapiens, UniProt P20618+P28074); test: Kinetic analysis of purified 20S inhibition; format: biochemical
Cathepsin L = Cathepsin L (Homo sapiens, UniProt P07711); test: Protease selectivity assay, cathepsin L; format: biochemical
Chain of Cathepsin L (P07711 114-333): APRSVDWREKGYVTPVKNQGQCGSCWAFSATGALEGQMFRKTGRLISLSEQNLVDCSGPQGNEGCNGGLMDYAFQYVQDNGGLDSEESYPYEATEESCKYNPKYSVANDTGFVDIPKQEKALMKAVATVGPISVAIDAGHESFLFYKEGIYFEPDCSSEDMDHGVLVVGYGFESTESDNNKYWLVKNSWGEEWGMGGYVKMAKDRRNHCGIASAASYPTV

[7] = target: human peripheral blood monocyte 20S β2i site, immunoproteasome (Homo sapiens, UniProt P40306+P49720); test: Purified human 20S-PA28 peptidase assay, β2i site; format: biochemical
[8] = target: human peripheral blood monocyte 20S β5i site, immunoproteasome (Homo sapiens, UniProt P20618+P28062); test: Purified human 20S-PA28 peptidase assay, β5i site; format: biochemical
[9] = target: human erythrocyte 20S β1c (caspase-like) site, constitutive proteasome (Homo sapiens, UniProt P28072+Q99436); test: Purified human 20S-PA28 peptidase assay, β1c site; format: biochemical
Trypsin = test: Protease selectivity assay, trypsin; format: biochemical, human
[10] = system: MDA-MB-231, Calu6, H460, HCT116 and HT29 cells; test: ATPlite cell viability assays across cancer cell lines; format: cell-based; conditions: 72 h, read-out: LC50 values across a panel of five cancer cell lines
[11] = target: Coagulation Factor β-XIIa (Homo sapiens, UniProt P00748); test: Protease selectivity assay, coagulation Factor β-XIIa; format: biochemical
Chain of Coagulation Factor β-XIIa (P00748 373-615 limits assumed, other chains not shown): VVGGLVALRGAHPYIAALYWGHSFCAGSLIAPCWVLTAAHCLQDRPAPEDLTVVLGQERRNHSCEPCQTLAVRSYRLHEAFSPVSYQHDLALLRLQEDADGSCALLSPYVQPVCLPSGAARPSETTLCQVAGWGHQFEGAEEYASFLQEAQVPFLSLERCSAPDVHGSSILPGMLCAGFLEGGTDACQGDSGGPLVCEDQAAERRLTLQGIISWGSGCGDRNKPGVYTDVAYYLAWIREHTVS

Thrombin = Thrombin (Homo sapiens, UniProt P00734); test: Protease selectivity assay, thrombin; format: biochemical
[12] = target: human erythrocyte 20S β2c (trypsin-like) site, constitutive proteasome (Homo sapiens, UniProt P49720+Q99436); test: Purified human 20S-PA28 peptidase assay, β2c site; format: biochemical

SMILES	t½ for dissociation from the β5 site [1]	MDA231 4xUb-Luc Maximal induction [2]	inhibition at 3 µM ([3]; Homo sapiens, HCT-116, read-out: inhibition of bulk protein turnover)	CC50 (MDA-MB-231 cells)	Enzyme inhibition at 100 μM compound, Tissue plasminogen activator [4]	IC50 [5]	accumulation of the 4xUb-Luc reporter, up to ([2]; 8 h, highest effect observed)	Ki [6]	Enzyme inhibition at 100 μM compound, Cathepsin L (Cathepsin L)	IC50 [7]	IC50 [8]	IC50 [9]	Enzyme inhibition at 100 μM compound, Trypsin (Trypsin)	CC50 [10]	Enzyme inhibition at 100 μM compound, Coagulation Factor β-XIIa [11]	Enzyme inhibition at 100 μM compound, Thrombin (Thrombin)	IC50 [12]	inhibition of bulk protein turnover ([3]; HCT116 cells, 3 μM compound)
CC(C)C[C@H](NC(=O)[C@H](Cc1ccccc1)NC(=O)c1cnccn1)B(O)O [Bortezomib]	~ 110 min	340±12 fold	~50%															
Cc1ccc(CNC(=O)[C@H](CCc2ccccc2)NC(=O)[C@H](CCc2ccccc2)NC(=O)[C@H](CCc2ccccc2)NC(=O)c2cnc(C)cn2)cc1 [Compound 1, 5-methyl-N-((S)-1-((S)-1-((S)-1-(4-methylbenzylamino)-1-oxo-4-phenylbutan-2-ylamino)-1-oxo-4-phenylbutan-2-ylamino)-1-oxo-4-phenylbutan-2-yl)pyrazine-2-carboxamide]		52±16 fold		150 ± 23 nM	< 50%	> 100000 nM	approx. 100 fold	0.5 ± 0.12 nM	< 50%	> 100000 nM	8.9 nM	28000 nM	< 50%	50 to 380 nM	< 50%	< 50%	57000 nM	
C[C@@]12OC(=O)[C@]1([C@@H](O)[C@@H]1C=CCCC1)NC(=O)[C@@H]2CCCl [ML858]																		comparable
